According to patent US20250302815A1, “PROTEIN TYROSINE PHOSPHATASE TARGETING LIGANDS” (CALICO LIFE SCIENCES LLC, priority 2021, published 2025):

Legend:
[1] = target: T1, PTPN2 (B16F10.4 cells) (Mus musculus, UniProt Q06180); experiment: HiBiT Degradation B16F10.4 PTPN2; format: cell-based; settings: 24.0 hours
T1 construct: HiBiT; host or cells: B16F10.4
T1 sequence (Q06180 1-406): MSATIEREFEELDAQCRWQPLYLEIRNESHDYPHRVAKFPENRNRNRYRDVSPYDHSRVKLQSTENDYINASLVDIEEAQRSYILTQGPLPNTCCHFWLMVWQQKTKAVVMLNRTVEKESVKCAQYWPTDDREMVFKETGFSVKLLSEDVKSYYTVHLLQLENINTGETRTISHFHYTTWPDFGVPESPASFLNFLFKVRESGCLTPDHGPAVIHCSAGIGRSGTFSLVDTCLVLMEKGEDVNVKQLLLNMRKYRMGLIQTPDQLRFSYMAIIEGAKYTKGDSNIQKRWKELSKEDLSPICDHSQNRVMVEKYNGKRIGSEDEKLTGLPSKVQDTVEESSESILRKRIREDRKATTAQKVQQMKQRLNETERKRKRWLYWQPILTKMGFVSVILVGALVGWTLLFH

[2] = target: T2, PTPN2 (HiBIT-PTPN2 in 293T.109 cells) (Homo sapiens, UniProt P17706); experiment: HiBiT Degradation 293T.109 PTPN2 (Nano-Glo HiBiT Lytic Assay); format: cell-based; settings: 24.0 hours
T2 construct: expressed in transfected cells; host or cells: 293T.109 (293T WT from ATCC)
T2 sequence (P17706 1-415): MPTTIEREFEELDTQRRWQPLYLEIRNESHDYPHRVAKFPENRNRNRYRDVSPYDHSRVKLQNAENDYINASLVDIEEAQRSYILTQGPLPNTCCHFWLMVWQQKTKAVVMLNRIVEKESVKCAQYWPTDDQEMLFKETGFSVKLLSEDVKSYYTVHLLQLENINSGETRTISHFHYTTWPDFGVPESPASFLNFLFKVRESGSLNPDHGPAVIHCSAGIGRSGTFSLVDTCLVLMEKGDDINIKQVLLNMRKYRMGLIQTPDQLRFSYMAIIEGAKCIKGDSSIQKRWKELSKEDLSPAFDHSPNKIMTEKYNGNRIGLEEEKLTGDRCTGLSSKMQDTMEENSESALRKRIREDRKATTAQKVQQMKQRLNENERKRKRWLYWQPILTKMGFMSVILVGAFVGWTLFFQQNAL
Description: Dulbecco's modified Eagle medium (DMEM) without phenol red and fetal bovine serum (FBS) were purchased from Gibco (Grand Island, NY, USA). Nano-Glo® HiBIT Lytic Assay System was purchased from Promega (Madison, WI, USA). 293T.109 (HiBIT-PTPN2) cell line was generated by ectopically expressing PTPN2 with N-terminal HiBIT fusion tag in 293T WT cell line purchased from ATCC (Manassas, VA, USA). Cell culture flasks and 384-well microplates were acquired from VWR (Radnor, PA, USA).
PTPN2 degradation was determined based on quantification of luminescent signal using Nano-Glo® HiBIT Lytic Assay kit. Test compounds were added to the 384-well plate from a top concentration of 10 μM with 11 points, half log titration in duplicates. 293T.109 cells were added into 384-well plates at a cell density of 5000 cells per well. The plates were kept at 37° C. with 5% CO2 for 24 hours. The cells treated in the absence of the test compound were the negative control and the cells without Nano-Glo® HiBIT Lytic reagent were the positive control. After 24-hour incubation, Nano-Glo® HiBiT Lytic Assay reagents were added to the cells. Luminescence was acquired on EnVision™ Multilabel Reader (PerkinElmer, Santa Clara, CA, USA).

Row | Compound | DC50 [1] | DC50 [2]
1 | CC1(C)C[C@@H](Nc2cccc(-c3sc(C(=O)O)c(OCC(=O)O)c3Cl)c2)CCN1S(=O)(=O)Cc1cccc(NC(=O)C2CCN(C(=O)CNc3cccc4c3C(=O)N(C3CCC(=O)NC3=O)C4=O)CC2)c1 (stereo partly drawn) [Example 32, 3-(carboxymethoxy)-4-chloro-5-[3-[[(4S)-1-[[3-[[1-[2-[[2-(2,6-dioxo-3-piperidyl)-1,3-dioxo-isoindolin-4-yl]amino]acetyl]piperidine-4-carbonyl]amino]phenyl]methylsulfonyl]-2,2-dimethyl-4-piperidyl]amino]phenyl]thiophene-2-carboxylic acid] | 200 to 1000 nM | 50 to 200 nM
2 | O=C(O)COc1c(C(=O)O)sc(-c2cccc(NC3CCN(S(=O)(=O)Cc4cccc(NC(=O)CCCCCN5CCC(Nc6cccc7c6CN(C6CCC(=O)NC6=O)C7=O)CC5)c4)CC3)c2)c1Cl (stereo not shown) [Example 33, 3-(carboxymethoxy)-4-chloro-5-[3-[[1-[[3-[6-[4-[[2-(2,6-dioxo-3-piperidyl)-1-oxo-isoindolin-4-yl]amino]-1-piperidyl]hexanoylamino]phenyl]methylsulfonyl]-4-piperidyl]amino]phenyl]thiophene-2-carboxylic acid] | ≥ 1000 nM | 200 to 1000 nM
3 | CC1(C)C[C@@H](Nc2cccc(-c3sc(C(=O)O)c(OCC(=O)O)c3Cl)c2)CCN1S(=O)(=O)Cc1cccc(NC(=O)CNc2ccc3c(c2)C(=O)N(C2CCC(=O)NC2=O)C3=O)c1 (stereo partly drawn) [Example 34, 3-(carboxymethoxy)-4-chloro-5-[3-[[(4S)-1-[[3-[[2-[[2-(2,6-dioxo-3-piperidyl)-1,3-dioxo-isoindolin-5-yl]amino]acetyl]amino]phenyl]methylsulfonyl]-2,2-dimethyl-4-piperidyl]amino]phenyl]thiophene-2-carboxylic acid] | 200 to 1000 nM | 200 to 1000 nM
4 | CC1(C)C[C@@H](Nc2cccc(-c3sc(C(=O)O)c(OCC(=O)O)c3Cl)c2)CCN1S(=O)(=O)Cc1cccc(NC(=O)CCOCCOCCOCCCc2cccc3c2C(=O)N(C2CCC(=O)NC2=O)C3=O)c1 (stereo partly drawn) [Example 35, 3-(carboxymethoxy)-4-chloro-5-[3-[[(4S)-1-[[3-[3-[2-[2-[3-[2-(2,6-dioxo-3-piperidyl)-1,3-dioxo-isoindolin-4-yl]propoxy]ethoxy]ethoxy]propanoylamino]phenyl]methylsulfonyl]-2,2-dimethyl-4-piperidyl]amino]phenyl]thiophene-2-carboxylic acid] | 200 to 1000 nM | 200 to 1000 nM
5 | O=C(O)COc1c(C(=O)O)sc(-c2cccc(NC3CCN(S(=O)(=O)Cc4cccc(NC(=O)CNc5ccc6c(c5)CN(C5CCC(=O)NC5=O)C6=O)c4)CC3)c2)c1Cl (stereo not shown) [Example 36, 3-(carboxymethoxy)-4-chloro-5-[3-[[1-[[3-[[2-[[2-(2,6-dioxo-3-piperidyl)-1-oxo-isoindolin-5-yl]amino]acetyl]amino]phenyl]methylsulfonyl]-4-piperidyl]amino]phenyl]thiophene-2-carboxylic acid] | 200 to 1000 nM | 200 to 1000 nM
6 | CC1(C)C[C@@H](Nc2cccc(-c3sc(C(=O)O)c(OCC(=O)O)c3Cl)c2)CCN1S(=O)(=O)Cc1cccc(NC(=O)CNc2ccc3c(c2)CN(C2CCC(=O)NC2=O)C3=O)c1 (stereo partly drawn) [Example 37, 3-(carboxymethoxy)-4-chloro-5-[3-[[(4S)-1-[[3-[[2-[[2-(2,6-dioxo-3-piperidyl)-1-oxo-isoindolin-5-yl]amino]acetyl]amino]phenyl]methylsulfonyl]-2,2-dimethyl-4-piperidyl]amino]phenyl]thiophene-2-carboxylic acid] | 200 to 1000 nM | 200 to 1000 nM
7 | O=C(O)COc1c(C(=O)O)sc(-c2cccc(NC3CCN(S(=O)(=O)Cc4cccc(NC(=O)CCn5cc(CNc6cccc7c6CN(C6CCC(=O)NC6=O)C7=O)cn5)c4)CC3)c2)c1Cl (stereo not shown) [Example 38, 3-(carboxymethoxy)-4-chloro-5-[3-[[1-[[3-[3-[4-[[[2-(2,6-dioxo-3-piperidyl)-1-oxo-isoindolin-4-yl]amino]methyl]pyrazol-1-yl]propanoylamino]phenyl]methylsulfonyl]-4-piperidyl]amino]phenyl]thiophene-2-carboxylic acid] | ≥ 1000 nM | 200 to 1000 nM
8 | CC(C)(c1cccc(NC(=O)CCCCCCNC(=O)CNc2ccc3c(c2)CN(C2CCC(=O)NC2=O)C3=O)c1)S(=O)(=O)N1CCC(Nc2cccc(-c3sc(C(=O)O)c(OCC(=O)O)c3Cl)c2)CC1 (stereo not shown) [Example 39, 3-(carboxymethoxy)-4-chloro-5-[3-[[1-[1-[3-[7-[[2-[[2-(2,6-dioxo-3-piperidyl)-1-oxo-isoindolin-5-yl]amino]acetyl]amino]heptanoylamino]phenyl]-1-methyl-ethyl]sulfonyl-4-piperidyl]amino]phenyl]thiophene-2-carboxylic acid] | ≥ 1000 nM | 200 to 1000 nM
9 | CC(C)(c1cccc(NC(=O)CCCCCCNC(=O)CNc2cccc3c2CN(C2CCC(=O)NC2=O)C3=O)c1)S(=O)(=O)N1CCC(Nc2cccc(-c3sc(C(=O)O)c(OCC(=O)O)c3Cl)c2)CC1 (stereo not shown) [Example 40, 3-(carboxymethoxy)-4-chloro-5-[3-[[1-[1-[3-[7-[[2-[[2-(2,6-dioxo-3-piperidyl)-1-oxo-isoindolin-4-yl]amino]acetyl]amino]heptanoylamino]phenyl]-1-methyl-ethyl]sulfonyl-4-piperidyl]amino]phenyl]thiophene-2-carboxylic acid] | ≥ 1000 nM | 200 to 1000 nM
10 | CC1(C)C[C@@H](Nc2cccc(-c3sc(C(=O)O)c(OCC(=O)O)c3Cl)c2)CCN1S(=O)(=O)Cc1cccc(NC(=O)C2CCN(C(=O)CNc3ccc4c(c3)CN(C3CCC(=O)NC3=O)C4=O)CC2)c1 (stereo partly drawn) [Example 41, 3-(carboxymethoxy)-4-chloro-5-(3-(((4S)-1-((3-(1-((2-(2,6-dioxopiperidin-3-yl)-1-oxoisoindolin-5-yl)glycyl)piperidine-4-carboxamido)benzyl)sulfonyl)-2,2-dimethylpiperidin-4-yl)amino)phenyl)thiophene-2-carboxylic acid] | ≥ 1000 nM | 50 to 200 nM
11 | O=C(O)COc1c(C(=O)O)sc(-c2cccc(NC3CCN(S(=O)(=O)C(c4ccccc4)c4cccc(NC(=O)CNc5ccc6c(c5)C(=O)N(C5CCC(=O)NC5=O)C6=O)c4)CC3)c2)c1Cl (stereo not shown) [Example 42, 3-(carboxymethoxy)-4-chloro-5-(3-((1-(((3-(2-((2-(2,6-dioxopiperidin-3-yl)-1,3-dioxoisoindolin-5-yl)amino)acetamido)phenyl)(phenyl)methyl)sulfonyl)piperidin-4-yl)amino)phenyl)thiophene-2-carboxylic acid] | ≥ 1000 nM | 200 to 1000 nM
12 | CC1(C)C[C@@H](Nc2cccc(-c3sc(C(=O)O)c(OCC(=O)O)c3Cl)c2)CCN1S(=O)(=O)Cc1cccc(NC(=O)C2CCN(C(=O)CNc3ccc4c(c3)C(=O)N(C3CCC(=O)NC3=O)C4=O)CC2)c1 (stereo partly drawn) [Example 43, 3-(carboxymethoxy)-4-chloro-5-[3-[[(4S)-1-[[3-[[1-[2-[[2-(2,6-dioxo-3-piperidyl)-1,3-dioxo-isoindolin-5-yl]amino]acetyl]piperidine-4-carbonyl]amino]phenyl]methylsulfonyl]-2,2-dimethyl-4-piperidyl]amino]phenyl]thiophene-2-carboxylic acid] | ≥ 1000 nM | 50 to 200 nM
13 | CC1(C)C[C@@H](Nc2cccc(-c3sc(C(=O)O)c(OCC(=O)O)c3Cl)c2)CCN1S(=O)(=O)Cc1cccc(NC(=O)C2CN(C(=O)CNc3cccc4c3CN(C3CCC(=O)NC3=O)C4=O)C2)c1 (stereo partly drawn) [Example 44, 3-(Carboxymethoxy)-4-chloro-5-(3-(((4S)-1-((3-(1-((2-(2,6-dioxopiperidin-3-yl)-1-oxoisoindolin-4-yl)glycyl)azetidine-3-carboxamido)benzyl)sulfonyl)-2,2-dimethylpiperidin-4-yl)amino)phenyl)thiophene-2-carboxylic acid] | 200 to 1000 nM | < 50 nM
14 | O=C(O)COc1c(C(=O)O)sc(-c2cccc(NC3CCN(S(=O)(=O)Cc4cccc(NC(=O)CN5CCC(c6ccc7c(c6)CN(C6CCC(=O)NC6=O)C7=O)CC5)c4)CC3)c2)c1Cl (stereo not shown) [Example 45] | 200 to 1000 nM | 200 to 1000 nM
